Assay results published in US12642776B2, “Anticoccidial composition comprising stilbene-based compound, and use thereof” (CJ CHEILJEDANG CORPORATION, priority 2020, dated 2026).
Marks after values point to notes of the source that are not given here.

How the values were obtained:
[1] = tested on: Eimeria tenella protozoan (sporozoite); assay: Direct killing effect against Eimeria tenella protozoan (sporozoite), microscopic count of alive sporozoites; conditions: for concentration showing death rate of 50% or more against the protozoan: tested 16 to 500 ppm
Description: In the present example, protozoan (sporozoite) direct killing ability evaluation was conducted against 1 representative Eimeria kind known to be infected in most farms (E. tenella).
A certain amount of oocysts of each coccidial protozoan was put in a tube containing glass beads and pulverized, and then to remove the crushed oocyst cell wall and other debris, internal sporocysts were purified using the percoll density gradient, and washed with PBS solution. A reagent comprising sodium taurocholic acid (Sigma aldrich, USA) and trypsin (Gibco, USA), respectively, was treated to sporocysts of Eimeria tenella for excystation of the internal sporozoites, and they were incubated, and then they were washed with PBS solution once and the protozoa were obtained.
After reacting the pterostilbene, pinostilbene and anticoccidial agents, diclazuril and gallic acid (hereinafter, material) with the protozoan of Eimeria tenella at various concentrations of 16 to 500 ppm, respectively, only alive protozoa (sporozoites) were counted through microscopic observation.

Eimeria tenella = assay: In vivo anticoccidial efficacy evaluation in broilers challenge-inoculated with Eimeria tenella; parameters: species or system Ross broilers; key to ACI: ACI out of 200 points; higher = better; ≥160 very excellent; Lesion index / Oocyst index: scale not given here; conditions: for Survival rate after challenge inoculation (%): Eimeria tenella-infected broilers, 10,000 oocysts oral, up to 8th day after challenge; for Survival rate after challenge inoculation (%) / BWG after challenge inoculation (g/d) / ACI / Lesion score / Oocyst index / Lesion index / Daily weight gain compared to negative control group (RWG, %): feed with salinomycin 60 ppm, resveratrol 125 ppm or pterostilbene 125 ppm; for BWG after challenge inoculation (g/d) / anticoccidial index: Eimeria tenella-infected broilers; for BWG after challenge inoculation (g/d): before challenge to 7th day after; for anticoccidial index: Table 5; for ACI: anticoccidial index by Equation 2, out of 200 points; for Lesion score: appendix lesion, scale 0-4, 8th day after challenge; for anticoccidial efficacy compared with salinomycin: comparison of anticoccidial index with salinomycin treatment group; for Oocyst index: index from oocyst excretion (%) compared to infected negative control group; for Lesion index: lesion score x 10; for Daily weight gain compared to negative control group (RWG, %): relative to non-infected negative control group
Description: An in vivo anticoccidial efficacy evaluation test was performed in an animal experiment facility in Gyeongsangnam-do, South Korea. One-day-old female Ross broilers were individually weighed and randomly divided into groups to use in an experiment. Matters and conditions for experimental design were described in Table 2.
A breeding farm was managed according to the Korean poultry breeding management guidelines. Cages and the breeding farm were cleaned and disinfected before starting the test. The temperature of […] and the humidity of 40 to 50% of the breeding farm were maintained, and it was continuously monitored. General feed was fed according to the nutritional requirements of broilers, and the mixing ratio was described in Table 3.
To the general feed (Table 3), each material (salinomycin (CAS No. 53003-10-4), resveratrol (sigma) or pterostilbene (sigma) was added at a concentration described in Table 4 below, respectively, and was self-mixed.
Antibiotics and supplements were not used in general feed and mixed feed, and no anticoccidial agent other than each material was added. Broilers were fed ad libitum throughout the experiment period. After putting 6 1-day-age broilers in cages randomly placed for each of the control group or test group and breeding, general feed was fed for 14 days, and then the mixed feed prepared above was ingested by dividing by control group or test group.
Coccidiosis induction was performed by oral inoculation (challenge inoculation) in an oral tube type of 10,000 oocysts (eggs) with over 90% mature (sporulation) Eimeria tenella per one individual to 21-day-old broilers.
The anticoccidial efficacy by test group designed in Example 1-2 above was shown as an anticoccidial index (ACI), and the anticoccidial index was calculated by Equation 2 below. The ACI score is out of 200 points, and the higher the ACI score, the more excellent the anticoccidial ability, and when it is 120 points or more to less than 140 points, it is determined that it is effective as an anticoccidial material, and when it is 140 points or more to less than 160 points, it is determined that it is excellent as an anticoccidial material, and when it is 160 points or more, it is determined that the anticoccidial effect is very excellent (Luis Miguel De Pablos et al., Anticoccidial activity of maslinic acid against infection with Eimeria tenella in chickens, Parasitol Res, 2010). Anticoccidial index(ACI)=(survival rate after challenge inoculation (%))+(daily weight gain compared to negative control group(RWG, %))−(lesion score×10)−(fecal oocyst excretion amount index) (Equation 2)
1) Survival rate: the number of dead individuals was recorded daily, and post mortem autopsy was performed to determine a cause of mortality, and the number of individuals who died due to causes other than coccidiosis was excluded. The survival rate (%) up to the 8th day after challenge inoculation was used for anticoccidial index calculation. The measured survival rate was described in Table 5 below.
2) Daily weight gain: body weight was measured for each cage before challenge inoculation with a protozoan into an individual and at the 7th day after challenge inoculation, and the difference was divided by the number of days to calculate the daily weight gain (ADG, g/d). ‘Daily weight gain compared to the negative control group (RWG, %)’ which was calculated by dividing the daily weight gain (ADG, average daily gain; g/d) of each experimental group by the weight gain (ADG, g/d) of the non-infected negative control group and multiplying by 100 was used for anticoccidial index calculation. The daily weight gain (ADG, g/d) measured in each control group and test group and the daily weight gain compared to the negative control group (RWG, %) were shown in Table 5 below.
3) Lesion scoring: On the 8th day after challenge inoculation, an autopsy was conducted for 6 broilers per cage, and the intestines were incised and opened. […]

Structure (SMILES) | Protozoal death rate by material treatment concentration (%) ([1]; 16 ppm) | Protozoal death rate by material treatment concentration (%) ([1]; 32 ppm) | Protozoal death rate by material treatment concentration (%) ([1]; 62 ppm) | Protozoal death rate by material treatment concentration (%) ([1]; 125 ppm) | Protozoal death rate by material treatment concentration (%) ([1]; 250 ppm) | Protozoal death rate by material treatment concentration (%) ([1]; 500 ppm) | concentration showing death rate of 50% or more against the protozoan [1] [ppm] | Survival rate after challenge inoculation (%) (Eimeria tenella) | BWG after challenge inoculation (g/d) (Eimeria tenella) | anticoccidial index (Eimeria tenella) [points] | ACI (Eimeria tenella) | Lesion score (Eimeria tenella) | anticoccidial efficacy compared with salinomycin (Eimeria tenella) | Oocyst index (Eimeria tenella) | Lesion index (Eimeria tenella) | Daily weight gain compared to negative control group (RWG, %) (Eimeria tenella) [%]
N#CC(c1ccc(Cl)cc1)c1c(Cl)cc(-n2ncc(=O)[nH]c2=O)cc1Cl (stereo not shown) [Diclazuril, diclazuril, reference compound] | 0 | 0 | 0 | 0 | 35 | 44 |  |  |  |  |  |  |  |  |  | 
O=C(O)c1cc(O)c(O)c(O)c1 [Gallic acid, gallic acid, reference compound] | 0 | 0 | 0 | 0 | 26 | 32 |  |  |  |  |  |  |  |  |  | 
COc1cc(O)cc(/C=C/c2ccc(O)cc2)c1 [Pinostilbene, 3-Methoxy-4′,5-dihydroxy-trans-stilbene] | 0 | 0 | 0 | 0 | 50.5 | 61.3 | ≥ 250 |  |  |  |  |  |  |  |  | 
COc1cc(/C=C/c2ccc(O)cc2)cc(OC)c1 [Pterostilbene, 3,5-Dimethoxy-4′-hydroxystilbene] | 33.3 | 63.4 | 74.2 | 100 | 100 | 100 | ≥ 32 | 100 | 389^bc g/d | 151 | 151 | 2.8^b | equivalent or superior | 10 | 28 | 89
Oc1ccc(/C=C/c2cc(O)cc(O)c2)cc1 [Resveratrol] |  |  |  |  |  |  |  | 100 | 381^bcd g/d | 149 | 149 | 2.95 | equivalent or superior | 10 | 29 | 87
CC[C@@H](C(=O)[C@@H](C)[C@@H](O)[C@H](C)[C@@H]1O[C@@H]([C@@H](CC)C(=O)O)CC[C@@H]1C)[C@H]1O[C@]2(C=C[C@@H](O)[C@]3(CC[C@@](C)([C@H]4CC[C@](O)(CC)[C@H](C)O4)O3)O2)[C@H](C)C[C@@H]1C [Salinomycin, salinomycin, reference compound] |  |  |  |  |  |  |  | 100 | 360^cd g/d | 149 | 149 | 2.3^c |  | 10 | 23 | 82
